From patent publication US6083941A, “Inhibition of NMDA receptor activity by pregnenolone sulfate derivatives” (Trustees of Boston University, priority 1998, dated 2000)

Columns and labels:
Type in all cases: in vivo
[1] = system: mice; assay: Behavioral observational assessment after i.p. steroid; settings: 25 mg/kg i.p., 30 min. after injection
Description: To test for behavioral effects, PS, 5β3αS, 5β3αHS, βE2 (17)HS, or βE2 (3)HS (7 mg/ml in DMSO) was administered to mice i.p. at 25 mg/kg (5 animals per drug group). Behavioral assessments were made 30 min. after injection using a comprehensive observational assessment of motor-affective responses, sensory-motor responses, posture, muscle tone, equilibration, CNS excitation, and autonomic function (Irwin, R. P., et al., NeuroSci. Lett., 141:30-44 (1968)). […] The latency to loss of righting reflex was 2.5±0.5 min., and the latency to regain the righting reflex was 83±11 min. The rapidity of onset argues that 5β3αHS readily crosses the blood brain barrier.

[2] = system: NMDA-induced seizure and death in mice; assay: NMDA-induced seizure and death (100 mg/kg NMDA challenge); settings: steroid 25 mg/kg i.p., DMSO 50%
Description: 5β3αHS (25 mg/kg, i.p.) protects mice from NMDA-induced death. None of the steroids tested altered the latency to NMDA-induced seizure. However, 100% of the animals that received 5β3αHS survived the 100 mg/kg NMDA challenge compared to 50% for DMSO, 75% for 5β3αS and E2 (3)HS, and 50% for E2 (17)HS.

[3] = system: NMDA-induced convulsion and mortality in mice; assay: NMDA-induced convulsion test (200 mg/kg NMDA); settings: mice, i.v. administration, FIG. 8
Description: Male CD-1 mice (Charles River Laboratories, Wilmington, Mass.) weighing 20-25 g were used for the NMDA-induced convulsion test. Mice were injected intraperitoneally with the test compound dissolved in DMSO or with vehicle. NMDA (200 mg/kg, i.p.) was injected either 2 minutes after intravenous injection of test compound or 20 minutes after intraperitoneal injection of test compound.

Row | SMILES | behavioral assessment [1] | animals that survived the 100 mg/kg NMDA challenge [2] [%] | seizures and mortality induced by NMDA [3]
1 | C[C@]12CC[C@@H]3c4ccc(OC(=O)CCC(=O)O)cc4CC[C@H]3[C@@H]1CC[C@@H]2O [17βE(3)HS, 17β-estradiol-3-hemisuccinate] | very minor behavioral impairment | 75 | effective in blocking seizures and mortality
2 | C[C@]12CC[C@@H]3c4ccc(O)cc4CC[C@H]3[C@@H]1CC[C@@H]2OC(=O)CCC(=O)O [17βE(17)HS, 17β-estradiol-17-hemisuccinate] | very minor behavioral impairment | 50 | effective in blocking seizures and mortality
